Several values for one entry are separate records, joined by “and”; a condition that tells them apart may be missing. Equal values may be shown once. Where a name gives a salt, the structure may show the parent alone.
Assays:
[1] = tested on: cyclooxygenase; test: resident murine peritoneal macrophage test, PGE2 (cyclooxygenase) by RIA; assay type: cell-based, mouse (female Swiss Webster); settings: for IC50: 95% confidence limits given, mouse macrophages
Method: (§1) The ability of the compounds of the invention to act as inhibitors of the enzymes 5-lipoxygenase and cyclooxygenase was evaluated in the resident murine peritoneal macrophage standard pharmacological test procedure. This test procedure was carried out as follows.
(§2) Resident peritoneal macrophages were collected from female Swiss Webster mice (49 days old, 20-25 gms, Buckshire) by lavaging with 7-8 ml Hanks Balanced Salt Solution (HBSS) without Ca^++ and Mg^++ (GIBCO). The lavage fluid from several mice was pooled and centrifuged at 4° C. for 10 minutes at 400 xg. The cell pellet was resuspended in Medium 199 (GIBCO) with HEPES buffer containing 100 μg/ml gentamicin. Two ml of the cell suspension (4×10^6 cells) were then plated on 35 mm culture dishes (Nunc).
A macrophage monolayer was established after a 1-1.5 hour incubation of the cells at 37° C. in an atmosphere of […] and 5% CO2. The monolayers were washed 2x with 2 ml HBDSS, containing Ca^++ and Mg^++ after which 2 ml Medium 199 supplemented with 10% freshly thawed heat-inactivated fetal bovine serum and 100 μg/ml gentamicin was added for an overnight incubation.
(§3) Residual serum and cellular debris were removed from the monolayers by washing 3x with 2 ml HBSS containing Ca^++ and Mg^++. Macrophages were preincubated for 5 minutes with 1 ml serum-free M199 containing 10 μl dimethyl sulfoxide (DMSO) vehicle or test compound prior to cell activation with zymosan ([…]) or arachidonic acid (AA) (2 μM). After 2 hours, the supernatants are removed and either assayed for LTC4 and PGE2 by radioimmunoassay (RIA) directly or stored at -20° C. In all cases, results are expressed as ng metabolite/4×10^6 cells.
(§4) Calculations: The raw data were converted to ng metabolite/4-10^6 cells using a standard curve. Results were then expressed as percent inhibition of zymosan induced, leukotriene or prostaglandin synthesis (control) using the following equation: […]

[2] = target: T1, 5-lipoxygenase (Mus musculus, UniProt P48999); test: resident murine peritoneal macrophage test, LTC4 (5-lipoxygenase) by RIA; assay type: cell-based, mouse (female Swiss Webster)
T1 construct: Resident peritoneal macrophages were collected from female Swiss Webster mice; endogenous in cells; host or cells: resident peritoneal macrophages of female Swiss Webster mice
T1 sequence (P48999 1-674): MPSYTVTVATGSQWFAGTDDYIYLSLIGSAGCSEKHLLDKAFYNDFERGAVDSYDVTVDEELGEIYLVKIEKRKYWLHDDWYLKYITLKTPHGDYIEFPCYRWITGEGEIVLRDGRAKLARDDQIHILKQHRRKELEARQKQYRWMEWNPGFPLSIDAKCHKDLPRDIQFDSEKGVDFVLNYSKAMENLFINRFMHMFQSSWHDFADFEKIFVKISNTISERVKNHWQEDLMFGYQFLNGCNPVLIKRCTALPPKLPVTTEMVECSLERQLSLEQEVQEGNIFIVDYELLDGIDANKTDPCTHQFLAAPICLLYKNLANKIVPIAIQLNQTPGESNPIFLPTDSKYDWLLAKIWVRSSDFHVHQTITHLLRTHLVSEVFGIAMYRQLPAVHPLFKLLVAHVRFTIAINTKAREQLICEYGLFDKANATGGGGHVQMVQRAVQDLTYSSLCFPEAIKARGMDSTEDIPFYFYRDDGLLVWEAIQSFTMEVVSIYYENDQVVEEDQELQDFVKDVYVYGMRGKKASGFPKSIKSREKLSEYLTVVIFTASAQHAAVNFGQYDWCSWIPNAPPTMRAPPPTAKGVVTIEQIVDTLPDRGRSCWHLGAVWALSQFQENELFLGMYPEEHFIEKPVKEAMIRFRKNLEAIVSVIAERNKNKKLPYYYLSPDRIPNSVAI
Method: as §1
as §2, with “The cell pellet was resuspended in Medium 199 (GIBCO) with HEPES buffer containing 100 μg/ml gentamicin.” left out
as §3, §4

[3] = tested on: tetradecanoylphorbol acetate (TPA) induced ear edema; test: TPA induced ear edema in Webster mice (dermal inflammation); assay type: in vivo; settings: for inhibition of TPA induced ear edema: 100 mg/kg, oral, 30 min after TPA, ears measured 4 hrs after TPA
Method: Representative compounds of this invention were evaluated in an in vivo standard pharmacological test procedure that measured the effect of the representative compounds on dermal inflammation, as measured by the prevention of tetradecanoylphorbol acetate (TPA) induced ear edema in Webster mice. This test procedure was carried out as follows.
Mice were placed into plastic boxes in groups of six. Eight groups of mice received TPA topically on the right ear. TPA was dissolved in acetone at a concentration of 100 ug/ml. TPA was applied to the right ear by the means of an automatic pipette. Volumes of 10 ul were applied to the inner and outer surfaces of the ear. Each mouse received 2 ug/ear TPA. The left ear (control) received acetone delivered in the same manner. The compounds to be evaluated were given orally 30 min alter treatment with TPA.
Measurements were taken with Oditest calipers, 0-10 mm with 0.01 graduations. The right and left ears were measured 4 hrs after TPA-induced inflammation.
The difference between right and left ear thickness was calculated and the significance was determined by a one way analysis of variance with Dunnet's comparisons to control (P=0.05). Drug effects are expressed as a percent change from control values according to the following formula. [formula]

Row | SMILES | LTC4 % Inhibition ([2]; dose 0.1 μM) | LTC4 % Inhibition ([2]; dose 0.5 μM) | PGE2 % Inhibition ([1]; dose 0.5 μM) | inhibition of TPA induced ear edema [3] [%] | other results
1 | CCCCCC#CCC#CCC#CCC#CCCCC(=O)O [ETYA, reference compound] |  |  |  |  | IC50 [1]: 1.26 µM
2 | O=C(CCC1CCCCCCCCCCC1=O)C1=C(O)COC1=O (centres unmarked) [Example 1, 4-Hydroxy-3-[3-(2-oxocyclododecyl)-propionyl]-2-(5H)-furanone] | 2.1% | 38.7% | 5.8% |  | PGE2 % Inhibition ([1]; dose 0.1 μM): -17.9%
3 | O=C(CCC1CCCCCCCCCCC1=O)C1=C(O)CSC1=O (centres unmarked) [Example 2, 4-Hydroxy-3-[3-(2-Oxocyclododecyl)propionyl]-2-(5H)-thiophenone] | -4.9% | 39.5% | 3.3% | 40 | PGE2 % Inhibition ([1]; dose 0.1 μM): -35.0%
4 | COc1ccc2c(c1)c(CC(=O)O)c(C)n2C(=O)c1ccc(Cl)cc1 [Indomethacin, reference compound] |  |  |  |  | activity in TPA induced ear edema ([3]; at 10 mg/g (so in the source)): inactive
5 | CC(Cc1ccc(O)c(O)c1)C(C)Cc1ccc(O)c(O)c1 (centres unmarked) [NDGA, reference compound] |  |  |  |  | IC50 [1]: 2.15 µM

Continued, in another order:

Row | LTC4 % Inhibition ([2]; dose 0.1 μM) | LTC4 % Inhibition ([2]; dose 0.5 μM) | SMILES | PGE2 % Inhibition ([1]; dose 0.5 μM) | inhibition of TPA induced ear edema [3] [%] | other results
6 | 38% and 53% | 64% and 68% | O=C(CCC1CCCCCCCCCCC1=NOCc1ccccc1)C1=C(O)COC1=O (centres unmarked) [Example 3, 3-{3-[2-(Benzyloxyimino)cyclododecyl]-propionyl}-4-hydroxy-2-(5H)-furanone 2-amino-(2-hydroxymethyl)-1,3-propanediol salt] | 86% and 59% | 34 | LTC4 % Inhibition ([2]; dose 0.03 μM): 40%; PGE2 % Inhibition ([1]; dose 0.03 μM): 8%
7 | 37% and 66% | 77% | O=C(CCC1CCCCCCCCCCC1=NOCc1ccccc1)C1=C(O)CSC1=O (centres unmarked) [Example 4, 3-{3-[2-(Benzyloxyimino)cyclododecyl]-propionyl}-4-hydroxy-2-(5H)-thiophenone 2-amino-(2-hydroxymethyl)-1,3-propanediol salt] | 82% | 19 | LTC4 % Inhibition ([2]; dose 0.03 μM): 45%; LTC4 % Inhibition ([2]; dose 0.35 μM): 97%; PGE2 % Inhibition ([1]; dose 0.03 μM): 18%; PGE2 % Inhibition ([1]; dose 0.35 μM): 52%
